Structures can show the parent of a compound that is named as a salt. Square brackets hold non-standard residues; d marks the D form. Ends that are not written are not given here. Peptide text beside a SMILES is read from it.
Experiments:
[1] = 40 µM peptide in supplemented DMEM cell culture medium, 37°C, up to 96 h; RP-HPLC C18, UV 220 nm, peak area relative to time zero
Experimental: (§1) After 0, 0.5, 2, 4, 8, 24, 48, 72, and 96 h of incubation, a 40-µl aliquot was immediately injected for RP-HPLC analysis using an elution gradient of 0 to 100% acetonitrile in 0.05% aqueous trifluoroacetic acid (TFA) for 30 min at a flow rate of 1 ml/min.
(§2) At the end of 0, 0.5, 2, 4, 8, 24, 48, 72, and 96 h, an aliquot was taken from each mixture and analyzed by high-performance liquid chromatography (HPLC). The HPLC (Hitachi Elite Autosampler L-2200, pump L-2130, diode array detector L-2455, and column oven L-2300) was performed with a 150-mm-diameter C18 reverse-phase column (Merck). Each analysis involved an injection volume of 40 µl and elution with 0 to 100% acetonitrile in 0.05% aqueous trifluoroacetic acid (TFA) at a flow rate of 1 ml/min; the detection wavelength was set to 220 nm. The chromatograms were analyzed with EZChrom Elite software, and the peaks were integrated to extract the area.

[2] = system: M. avium-infected macrophages; settings: M. avium 2447 SmT-infected BMM; 4 to 120 h; data not shown
in vitro = settings: cell culture medium (supplemented DMEM)
Experimental: as §1, §2

M. avium = settings: broth culture; cited from earlier work
From the text: In contrast, we now verify that only D-LFcin17–30 induces a significant decrease in mycobacterial growth inside macrophages. However, all peptides were effective when combined with the antibiotic ethambutol. The combination of antimicrobial peptides with conventional antibiotics is of great potential interest, as it might reduce the dosages of each ...

M. avium 2447 SmT = experiment: Intramacrophagic M. avium growth, CFU assay in BALB/c BMM; type: cell-based, Mycobacterium avium; settings: peptides 40 µM, ethambutol 7.2 µM, each alone, 5 days
Experimental: Given that the peptides at up to 40 µM were not toxic to macrophages, we evaluated their effect on M. avium growing inside these cells. Bone marrow-derived macrophages were obtained from BALB/c mice and infected with M. avium 2447 smooth transparent variant (SmT). The different peptides were added at 40 µM, and ethambutol was added at 7.2 µM. After 5 days in culture, the number of intracellular bacteria per culture well was quantified in a CFU assay (Fig. 1D).
BMM at day 10 of culture were infected with 10^6 CFU of M. avium 2447 SmT for 4 h at 37°C in a 7% CO2 atmosphere. After incubation, cells were washed several times to remove noninternalized bacteria and reincubated with new medium with or without 40 µM peptide (76.9 µg/ml LFcin17–30 and D-LFcin17–30, 73.6 µg/ml LFcin17–30 all R, 80.3 µg/ml LFcin17–30 all R), alone or in combination with the antibiotic ethambutol (2 µg/ml or 7.2 µM ethambutol dihydrochloride; Sigma-Aldrich, St. Louis, MO, USA). Each condition was tested in triplicate. After 5 days in culture, the intracellular growth of M. avium 2447 SmT was evaluated by determining the number of CFU, as described previously ([75]).

Compound	levels of apoptosis or necrosis [2]	activity against M. avium in axenic cultures (M. avium)	also measured
FKCRRWQWRMKKLG [LFcin17–30]	no significant changes	–	degradation of peptide after 96 h of incubation [1]: completely degraded; metabolised at 24 h, 40 µM (in vitro): 50%
CSCC[C@@H](NC(=O)[C@@H](CCCNC(=N)N)NC(=O)[C@@H](Cc1c[nH]c2ccccc12)NC(=O)[C@@H](CCC(N)=O)NC(=O)[C@@H](Cc1c[nH]c2ccccc12)NC(=O)[C@@H](CCCNC(=N)N)NC(=O)[C@@H](CCCNC(=N)N)NC(=O)[C@@H](CS)NC(=O)[C@@H](CCCCN)NC(=O)[C@H](N)Cc1ccccc1)C(=O)N[C@H](CCCCN)C(=O)N[C@H](CCCCN)C(=O)N[C@H](CC(C)C)C(=O)NCC(=O)O [D-LFcin17–30] (H-[dF][dK][dC][dR][dR][dW][dQ][dW][dR][dM][dK][dK][dL]G-OH)	no significant changes	–	metabolised at 96 h, 40 µM (in vitro): ≤ 30%
FKCKKWQWKMKKLG [LFcin17–30 all K, LFcin17–30 variant with all arginines replaced with lysines]	–	all active	–
CC[C@@H](CO)NCCN[C@@H](CC)CO [ethambutol, ethambutol dihydrochloride]	–	–	inhibition of intramacrophagic M. avium growth, compound alone (M. avium 2447 SmT): None of the other peptides or ethambutol alone significantly inhibited M. avium growth
FRCRRWQWRMRRLG [LFcin17–30 all R, LFcin17–30 variant with all lysines replaced with arginines]	–	all active	–
